For assay [1], the system named is IL-8. Description: Rhinovirus-induced IL-8 release in BEAS2B cells. The format is cell-based. As to conditions: Homo sapiens, BEAS-2B. In short, it runs like this: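 BEAS2B cells infected with HRV RV16 at MOI 5 for 2 h at 33 °C, washed, then cultured 72 h; compounds given 2 h before infection and again after washout. IL-8 measured in supernatant by ELISA; surface ICAM-1 by cell-based ELISA (OD450–655), normalised to crystal violet cell count (OD595).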

The subject of assay [2] is TNFα. Description: LPS-induced TNFα release in THP-1 cells. Type of assay: cell-based. The conditions noted are these: Homo sapiens, THP-1, THP1 cells. As for the experimental part: THP-1 cells, a human monocytic cell line, were stimulated with 3 μg/mL of LPS (from E. Coli; 0111:B4, Sigma) for 4 hr and the supernatant collected for determination of the TNFα concentration by sandwich ELISA (Duo-set, R&D systems). The inhibition of TNFα production was calculated at each concentration by comparison with vehicle control.

Assay [3] deals with TNFα. Description: LPS-induced TNFα release in d-U937 cells. Type of assay: cell-based. As to conditions: Homo sapiens, dU937, dU937 cells; relative to 10 μg/mL BIRB796; read-out: LPS Induced Release TNFα REC50 (dU937). An outline of the steps:
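U937 cells differentiated with PMA (100 ng/mL, 48–72 hr) were pre-incubated with compound for 2 hr, then stimulated with E. coli O111:B4 LPS (0.1 μg/mL) for 4 hr. Supernatant cytokine measured by sandwich ELISA; inhibition vs vehicle control at each concentration, REC50 taken from the concentration-response curve.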

Assay [4] has as its system HRV16. Description: HRV16 induced CPE in MRC5 cells. Type of assay: cell-based. The conditions noted are these: Human rhinovirus sp.; for inhibition at 0.04 µg/mL: HRV16, MRC5, at 0.04 μg/mL, read-out: HRV CPE (MRC5) % inhibition. As for the experimental part:
The supernatants were aspirated, and then fresh media added followed by incubation for 4 days. Where appropriate, cells were pre-incubated with compound or DMSO for 2 hr, and the compounds and DMSO added again after washout of the virus.
The percentage inhibition for each well was calculated. The IC50 value was calculated from the concentration-response curve generated by the serial dilutions of the test compounds.

In assay [5] the test system is PBMC. Description: Cell mitosis assay. The format is cell-based. As to conditions: Homo sapiens; for inhibition at 5 µg/mL: read-out: Mitosis Assay % inhibition in PBMC Cells at concn 5 μg/mL. The method, then: Peripheral blood mononucleocytes (PBMCs) from healthy subjects were separated from whole blood (Quintiles, London, UK) using a density gradient (Histopaque®-1077, Sigma-Aldrich, Poole, UK). The PBMCs (3 million cells per sample) were subsequently treated with 2% PHA (Sigma-Aldrich, Poole, UK) for 48 hr, followed by a 20 hr exposure to varying concentrations of test compounds. At 2 hr before collection, PBMCs were treated with demecolcine (0.1 μg/mL; Invitrogen, Paisley, UK,) to arrest cells in metaphase. To observe mitotic cells, PBMCs were permeabilised and fixed by adding Intraprep (50 μL; Beckman Coulter, France), and stained with anti-phospho-histone 3 ([…]; #9701; Cell Signalling, Danvers, Mass.) and propidium iodide (1 mg/mL; Sigma-Aldrich, Poole, UK,) as previously described (Muehlbauer P. A. and Schuler M. J., Mutation Research, 2003, 537:117-130). Fluorescence was observed using an ATTUNE flow cytometer (Invitrogen, Paisley, UK), gating for lymphocytes.

The test system of assay [6] is RSV A2. Description: In vitro RSV virus load (F-protein ELISA) in primary bronchial epithelial cells. The conditions noted are these: human respiratory syncytial virus, Primary bronchial epithelial cell; for inhibition at 0.04 µg/mL: at 0.04 μg/mL, read-out: RSV (F-Elisa) (HBEC) % inhibition. Type of assay: cell-based, respiratory syncytical virus. The method, then: Normal human bronchial epithelial cells (NHBEC) grown in 96 well plates were infected with RSV A2 (Strain A2, HFA, Salisbury, UK) at an MOI of 0.001 in the LHC8 Media:RPMI-1640 (50:50) containing 15 mM magnesium chloride and incubated for 1 hr at 37° C. for adsorption. The cells were then washed with PBS (3×200 μL), fresh media (200 μL) was added and incubation continued for 4 days. Where appropriate, cells were pre-incubated with the compound or DMSO for 2 hr, and then added again after washout of the virus.
The cells were fixed with 4% formaldehyde in PBS solution (50 μL) for 20 min, washed with washing buffer (3×200 μL; PBS including 0.5% BSA and 0.05% Tween-20) and incubated with blocking solution (5% condensed milk in PBS) for 1 hr. Cells were then washed with washing buffer (3×200 μL) and incubated for 1 hr at RT with anti-RSV (2F7) F-fusion protein antibody (40 μL; mouse monoclonal, lot 798760, Cat. No. ab43812, Abcam) in 5% BSA in PBS-tween). After washing, cells were incubated with an HRP-conjugated secondary antibody solution (50 μL) in 5% BSA in PBS-Tween (lot 00053170, Cat.No. P0447, Dako) and then TMB substrate (50 μL; substrate reagent pack, lot 269472, Cat. No. DY999, R&D Systems, Inc.) was added. This reaction was stopped by the addition of 2N H2SO4 (50 μL) and the resultant signal was determined colorimetrically (OD: 450 nm with a reference wavelength of 655 nm) in a microplate reader (Varioskan® Flash, ThermoFisher Scientific).
After washing with washing buffer, 1% SDS in distilled water (100 μL) was added to each well, and plates were shaken lightly on the shaker for 1 hr prior to reading the absorbance at 595 nm. The measured OD450-655 readings were corrected to the cell number by dividing the OD450-655 by the OD595 readings. The percentage inhibition for each well was calculated and the IC50 value was calculated from the concentration-response curve generated from the serial dilutions of compound.
Background: An ELISA detects its analyte on a solid surface through an enzyme-linked reagent.

In general, IC50 refers to the point on the concentration scale where inhibition reaches its midpoint.

In the case of `Cc1ccc(-n2nc(C(C)(C)C)cc2NC(=O)Nc2ccc(Oc3ccnc(Nc4ccccc4)n3)c3ccccc23)cc1` [Example 1, 1-(3-(tert-Butyl)-1-(p-tolyl)-1H-pyrazol-5-yl)-3-(4-(2-(phenylamino)pyrimidin-4-yloxy)naphthalen-1-yl)urea], the IC50 in assay [1] (BEAS2B cells, HRV-16) stood at 0.036 nM; in assay [2], 3.4 nM; in assay [4] (HRV16, MRC5 cells, HRV-16), 17.1 nM; in assay [6] (read-out: RSV (F-Elisa) (HBEC) IC50), 15.4 nM. Further, the EC50 in assay [3] amounted to 2.3 nM. Besides, the inhibition at 0.04 µg/mL in assay [4] was 57%; in assay [6] it was 85%. Moreover, the inhibition at 1 µg/mL in assay [5] (read-out: Mitosis Assay % inhibition in PBMC Cells at concn 1 μg/mL) came out at 13.7%. Besides, the inhibition at 5 µg/mL in assay [5] amounted to 31.3%.

For `Cc1ccc(-n2nc(C(C)(C)C)cc2NC(=O)Nc2ccc(Oc3ccnc(Nc4cccc(O)c4)n3)c3ccccc23)cc1` [Example 2, 1-(3-(tert-Butyl)-1-(p-tolyl)-1H-pyrazol-5-yl)-3-(4-((2-((3-hydroxyphenyl)amino)pyrimidin-4-yl)oxy)naphthalen-1-yl)urea], the inhibition at 0.04 µg/mL in assay [1] (at 0.04 μg/mL, read-out: HRV IL-8 (BEAS2B) % inhibition) came to 100%; in assay [4], 5%; in assay [6], 42%. In addition, the IC50 in assay [2] stood at 2.8 nM. Further, the EC50 in assay [3] worked out at 2.4 nM. In assay [5], the inhibition at 5 µg/mL came out at 70.6%.

The values above are taken from patent US10238658B2, “1-pyrazolyl-3-(4-((2-anilinopyrimidin-4-yl) oxy) napththalen-1-yl) ureas as p38 MAP kinase inhibitors” (Respivert Limited, priority 2011, dated 2019).
